Laboratory results: US9637473B2, “Acrylamide derivatives as antimalarial agents” (priority 2013, dated 2017)
Counter-ions that a name gives are not always drawn.

System: P. Falciparum NF54
Assay: Plasmodium falciparum in vitro assay ([3H]-hypoxanthine incorporation)
Format: cell-based
Conditions: Plasmodium falciparum, Erythrocyte, P. Falciparum NF54, erythrocytic stages in human red blood cells, 50% human serum
Method in brief: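 Activity against the blood stages of Plasmodium falciparum growing in human red blood cells was measured by how much [3H]-hypoxanthine the parasites took up. Filters were dried, sealed in plastic foil containing 10 mL of scintillation fluid, and read on a Betaplate liquid scintillation counter. IC50 values came from sigmoidal inhibition curves fitted in Microsoft Excel.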

| IC50 [µM] | Compound |
| --- | --- |
| 0.043 | Cc1cc(Nc2ccc(CN(C(=O)/C=C/c3ccc(C(F)(F)F)cc3)C3CCN(C(C)C)CC3)cc2)ccn1 [Example 186, (E)-N-(1-Isopropyl-piperidin-4-yl)-N-[4-(2-methyl-pyridin-4-ylamino)-benzyl]-3-(4-trifluoromethyl-phenyl)-acrylamide] |
| 0.016 | CN1CCC(N2CCC(CN(Cc3ccc(N(C)c4ccncc4)cc3)C(=O)/C=C/c3ccc(C(F)(F)F)cc3)CC2)CC1 [Example 187, (E)-N-(1′-Methyl-[1,4′]bipiperidinyl-4-ylmethyl)-N-[4-(methyl-pyridin-4-yl-amino)-benzyl]-3-(4-trifluoromethyl-phenyl)-acrylamide] |
| 0.04 | CN(c1ccncc1)c1ccc(CN(CC2CCN(C3CCCC3)CC2)C(=O)/C=C/c2ccc(C(F)(F)F)cc2)cc1 [Example 188, (E)-N-(1-Cyclopentyl-piperidin-4-ylmethyl)-N-[4-(methyl-pyridin-4-yl-amino)-benzyl]-3-(4-trifluoromethyl-phenyl)-acrylamide] |
| 0.034 | CC(C)CCN1CCC(CN(Cc2ccc(N(C)c3ccncc3)cc2)C(=O)/C=C/c2ccc(C(F)(F)F)cc2)CC1 [Example 189, (E)-N-[1-(3-Methyl-butyl)-piperidin-4-ylmethyl]-N-[4-(methyl-pyridin-4-yl-amino)-benzyl]-3-(4-trifluoromethyl-phenyl)-acrylamide] |
| 0.063 | CN(c1ccncc1)c1ccc(CN(C(=O)/C=C/c2ccc(C(F)(F)F)cc2)[C@H]2CC[C@H](N(C)C)CC2)cc1 [Example 190, (±)-trans-(E)-N-(4-Dimethylamino-cyclohexyl)-N-[4-(methyl-pyridin-4-yl-amino)-benzyl]-3-(4-trifluoromethyl-phenyl)-acrylamide] |
| 0.034 | CN(c1ccncc1)c1ccc(CN(C(=O)/C=C/c2ccc(C(F)(F)F)cc2)[C@H]2CC[C@@H](N(C)C)CC2)cc1 [Example 191, (±)-cis-(E)-N-(4-Dimethylamino-cyclohexyl)-N-[4-(methyl-pyridin-4-yl-amino)-benzyl]-3-(4-trifluoromethyl-phenyl)-acrylamide] |
| 0.025 | CN(c1ccncc1)c1ccc(CN(C(=O)/C=C/c2ccc(C(F)(F)F)cc2)[C@H]2CC[C@@H](N3CCCC3)CC2)cc1 [Example 192, (±)-cis-(E)-N-[4-(Methyl-pyridin-4-yl-amino)-benzyl]-N-(4-pyrrolidin-1-yl-cyclohexyl)-3-(4-trifluoromethyl-phenyl)-acrylamide] |
| 0.049 | CN(c1ccncc1)c1ccc(CN(C(=O)/C=C/c2ccc(C(F)(F)F)cc2)[C@H]2CC[C@H](N3CCCC3)CC2)cc1 [Example 193, (±)-trans-(E)-N-[4-(Methyl-pyridin-4-yl-amino)-benzyl]-N-(4-pyrrolidin-1-yl-cyclohexyl)-3-(4-trifluoromethyl-phenyl)-acrylamide] |
| 0.127 | CN1CCC(N2CCC(N(Cc3ccc(C(=O)c4ccncc4)cc3)C(=O)/C=C/c3ccc(C(F)(F)F)cc3)CC2)CC1 [Example 194, (E)-N-(1′-Methyl-[1,4′]bipiperidinyl-4-yl)-N-[4-(pyridine-4-carbonyl)-benzyl]-3-(4-trifluoromethyl-phenyl)-acrylamide] |
| 0.057 | CN(C)CCN1CCC(N(Cc2ccc(N(C)c3ccncc3)cc2)C(=O)/C=C/c2ccc(C(F)(F)F)cc2)CC1 [Example 195, (E)-N-[1-(2-Dimethylamino-ethyl)-piperidin-4-yl]-N-[4-(methyl-pyridin-4-yl-amino)-benzyl]-3-(4-trifluoromethyl-phenyl)-acrylamide formate] |
| 0.248 | Cc1cc(-c2ccc(CN(C(=O)/C=C/c3ccc(C(F)(F)F)cc3)C3CCN(C4CCCC4)CC3)cc2)ccn1 [Example 196, (E)-N-(1-Cyclopentyl-piperidin-4-yl)-N-[4-(2-methyl-pyridin-4-yl)-benzyl]-3-(4-trifluoromethyl-phenyl)-acrylamide] |
| 0.184 | O=C(/C=C/c1ccc(C(F)(F)F)cc1)N(Cc1ccc(-c2cccnc2)cc1)C1CCN(C2CCCC2)CC1 [Example 197, (E)-N-(1-Cyclopentyl-piperidin-4-yl)-N-(4-pyridin-3-yl-benzyl)-3-(4-trifluoromethyl-phenyl)-acrylamide] |
| 0.355 | O=C(/C=C/c1ccc(C(F)(F)F)cc1)N(Cc1ccc(-c2ccccn2)cc1)C1CCN(C2CCCC2)CC1 [Example 198, (E)-N-(1-Cyclopentyl-piperidin-4-yl)-N-(4-pyridin-2-yl-benzyl)-3-(4-trifluoromethyl-phenyl)-acrylamide] |
| 0.096 | CC(C)N1CCN(c2ccc(CN(C(=O)/C=C/c3ccc(C(F)(F)F)cc3)C3CCN(C4CCCC4)CC3)cc2)CC1 [Example 199, (E)-N-(1-Cyclopentyl-piperidin-4-yl)-N-[4-(4-isopropyl-piperazin-1-yl)-benzyl]-3-(4-trifluoromethyl-phenyl)-acrylamide] |
| 0.232 | CN1CCN(c2ccc(CN(C(=O)/C=C/c3ccc(C(F)(F)F)cc3)C3CCN(C4CCCC4)CC3)cc2)CC1 [Example 200, (E)-N-(1-Cyclopentyl-piperidin-4-yl)-N-[4-(4-methyl-piperazin-1-yl)-benzyl]-3-(4-trifluoromethyl-phenyl)-acrylamide] |
| 0.357 | Cc1ncc(-c2ccc(CN(C(=O)/C=C/c3ccc(C(F)(F)F)cc3)C3CCN(C4CCCC4)CC3)cc2)s1 [Example 201, (E)-N-(1-Cyclopentyl-piperidin-4-yl)-N-[4-(2-methyl-thiazol-5-yl)-benzyl]-3-(4-trifluoromethyl-phenyl)-acrylamide] |
| 0.434 | Cn1ccc(-c2ccc(CN(C(=O)/C=C/c3ccc(C(F)(F)F)cc3)C3CCN(C4CCCC4)CC3)cc2)n1 [Example 202, (E)-N-(1-Cyclopentyl-piperidin-4-yl)-N-[4-(1-methyl-1H-pyrazol-3-yl)-benzyl]-3-(4-trifluoromethyl-phenyl)-acrylamide] |
| 0.4 | O=C(/C=C/c1ccc(C(F)(F)F)cc1)N(Cc1ccc(-c2ncccn2)cc1)C1CCN(C2CCCC2)CC1 [Example 203, (E)-N-(1-Cyclopentyl-piperidin-4-yl)-N-(4-pyrimidin-2-yl-benzyl)-3-(4-trifluoromethyl-phenyl)-acrylamide] |
| 0.431 | O=C(/C=C/c1ccc(C(F)(F)F)cc1)N(Cc1ccc(-c2cncnc2)cc1)C1CCN(C2CCCC2)CC1 [Example 204, (E)-N-(1-Cyclopentyl-piperidin-4-yl)-N-(4-pyrimidin-5-yl-benzyl)-3-(4-trifluoromethyl-phenyl)-acrylamide] |
| 0.082 | CN(C)CCCOc1ccc(CN(C(=O)/C=C/c2ccc(C(F)(F)F)cc2)C2CCN(C3CCCC3)CC2)cc1 [Example 205, (E)-N-(1-Cyclopentyl-piperidin-4-yl)-N-[4-(3-dimethylamino-propoxy)-benzyl]-3-(4-trifluoromethyl-phenyl)-acrylamide] |
| 0.451 | O=C(/C=C/c1ccc(C(F)(F)F)cc1)N(Cc1ccnc(N2CCCC2)c1)C1CCN(C2CCCC2)CC1 [Example 206, (E)-N-(1-Cyclopentyl-piperidin-4-yl)-N-(2-pyrrolidin-1-yl-pyridin-4-ylmethyl)-3-(4-trifluoromethyl-phenyl)-acrylamide] |
| 0.412 | O=C(/C=C/c1ccc(C(F)(F)F)cc1)N(Cc1ccc(Oc2ccncc2)cc1)C1CCN(C2CCCC2)CC1 [Example 207, (E)-N-(1-Cyclopentyl-piperidin-4-yl)-N-[4-(pyridin-4-yloxy)-benzyl]-3-(4-trifluoromethyl-phenyl)-acrylamide] |
| 0.082 | Cc1cc(Oc2ccc(CN(C(=O)/C=C/c3ccc(C(F)(F)F)cc3)C3CCN(C4CCCC4)CC3)cc2)cc(C)n1 [Example 208, (E)-N-(1-Cyclopentyl-piperidin-4-yl)-N-[4-(2,6-dimethyl-pyridin-4-yloxy)-benzyl]-3-(4-trifluoromethyl-phenyl)-acrylamide] |
| 0.172 | Cc1cc(Nc2ccc(CN(C(=O)/C=C/c3ccc(Cl)cc3)C(C)CN(C)C)cc2)ccn1 (stereo not shown) [Example 209, (E)-3-(4-Chloro-phenyl)-N-(2-dimethylamino-1-methyl-ethyl)-N-[4-(2-methyl-pyridin-4-ylamino)-benzyl]-acrylamide] |
| 0.174 | Cc1cc(Nc2ccc(CN(C(=O)/C=C/c3ccc(Cl)cc3)C3CCN(C4CC4)CC3)cc2)ccn1 [Example 210, (E)-3-(4-Chloro-phenyl)-N-(1-cyclopropyl-piperidin-4-yl)-N-[4-(2-methyl-pyridin-4-ylamino)-benzyl]-acrylamide] |
